The source of these data is patent US10830762B2, “Compositions and methods for inducing conformational changes in cereblon and other E3 ubiquitin ligases” (Celgene Corporation, priority 2015, dated 2020).

Data set [1] addresses T1, GSPT1 (Homo sapiens, UniProt P15170+Q96SW2, V100A).
T1 construct: endogenous in cells; host or cells: HEK293T cells
Briefly: GSPT1 degradation in HEK293T cells transfected with wild-type or mutant CRBN. It counts as cell-based. The following applies: human WT CRBN. From the text: (§1) A key feature of immunomodulatory drug biology is the striking resistance observed in rodent species. This feature was historically a confounding factor in establishing the efficacy and safety risks associated with thalidomide. It was shown that, in contrast to human cereblon, murine cereblon is unable to rescue immunomodulatory drug sensitivity. Chamberlain et al., Nature structural & mole. biol. 2014, 21:803-809. It was proposed that the molecular basis for this would lie in two variable residues on the cereblon surface proximal to the tri-Tryp pocket, E377V and V388I. […] Kronke et al., Nature 2015, 523:183-188. Despite the potent effect seen on human cells, murine cells are resistant to the antiproliferative and pro-apoptotic effects of Compound C (data not shown). […] The dependence of GSPT1 degradation upon E377 can be rationalized by the crystal structure: the side chain of E377 mediates hydrogen bond interactions with the urea moiety of Compound C.

Data set [2] deals with T2, GSPT1 (Homo sapiens, UniProt P15170+Q96SW2).
T2 construct: endogenous in cells; host or cells: HEK293T cells
The description is as above. The data set is classed as cell-based. The following applies: murine CRBN V377E.
Source text: as §1

The target of data set [3] is T3, GSPT1 (Homo sapiens, UniProt P15170+Q96SW2, V100A/V388I).
T3 construct: endogenous in cells; host or cells: HEK293T cells
Described as above. It counts as cell-based. To be noted: human CRBN V388I.
Source text: as §1

Data set [4] has as its target T4, GSPT1 (Homo sapiens, UniProt P15170+Q96SW2, E377V/V100A).
T4 construct: endogenous in cells; host or cells: HEK293T cells
The description is as above. The data set is classed as cell-based. The following applies: human CRBN E377V.
Source text: as §1

For data set [5], the target named is CRBN (Homo sapiens, UniProt Q96SW2). Briefly: Thalidomide analog affinity bead competition assay in U266 cell extracts. The data set is classed as binding. To be noted: competition with thalidomide analog affinity beads. More on the design: endogenous in cells; host or cells: U266 multiple myeloma cells (extract). On the procedure: (§2) Immunoblot analysis of extracts prepared from U266 multiple myeloma cells and pre-incubated with vehicle DMSO (D), Pomalidomide (Pom) or Compound C at the indicated concentrations, and bound to thalidomide analog affinity beads, washed and eluted with SDS buffer as previously described (Ito et al, 2010; Lopez-Girona et al, 2012). Samples were subjected to SDS-PAGE and immunoblot analysis using anti-CRBN 65-76 (1:10,000 dilution; Red signal) and anti-DDB1 (Cell Signaling) (1:2,000 dilution; Green signal). […] Cell proliferation assay of DF15 (sensitive), DF15R (resistant; CRBNnull) cells treated with a dose response of Compound C. Assays were done in triplicate and error bars represent s.d. Data for each cell line was normalized to treatment with vehicle (DMSO). […] Cell proliferation assay of DF15 (sensitive), DF15R (resistant; CRBNnull), DF15R-hCRBNWT (human CRBN), DF15R-RFP cells treated with a dose response of Compound C. […] Assays were done in triplicate and error bars represent s.d. Data for each cell line was normalized to treatment with vehicle (DMSO).
Coupling of thalidomide analog to FG-magnetic nanoparticle beads (Tamagawa Seiko Co. Tokyo, Japan) was carried out as described (Ito et al., Science, 2010. 327(5971):1345-50), and cell extract binding assays to these beads were performed with minor modifications. […]

Data set [6] concerns TMD8 (ABC) or Karpas 422 (GCB) cells. Description: 3H-thymidine incorporation proliferation assay with lenalidomide co-treatment. It counts as cell-based. To be noted: co-treatment with 10 μM lenalidomide; 3H-thymidine incorporation.
Data set [7] deals with DF15 / DF15R myeloma cells. Briefly: Cell proliferation assay of DF15, DF15R and DF15R re-expressing CRBN treated with Compound C. The data set is classed as cell-based. How it is done: as §2
Data set [8] deals with yeast homologue SUP35 (Saccharomyces cerevisiae, UniProt P05453). Briefly: Compound-induced degradation of yeast homologue SUP35. It counts as cell-based. The following applies: yeast SUP35, in contrast to human GSPT1.
Data set [9] has as its system murine cells. Description: Antiproliferative and pro-apoptotic effects on murine cells. The following applies: murine cells (data not shown). It counts as cell-based.
Source text: as §1

The test system of data set [10] is MDA-MB-231 breast cancer cells. Description: Growth inhibition and pro-apoptotic activity in breast cancer cells treated with CRBN siRNA. It counts as cell-based. The following applies: CRBN siRNA vs negative control. How it is done: Breast cancer cells (MDA-MB-231) were treated with CRBN siRNA or a negative control. Compound C was added at a concentration between 0 to 100 μM, and CRBN levels were assessed at 48 hours post treatment.
Compound C-mediated growth inhibition and pro-apoptotic activity were also assessed.

Data set [11] has as its target T5, IKZF1 (Homo sapiens, UniProt Q13422+Q96SW2).
T5 construct: expressed in transfected cells; host or cells: HEK293T cells
Description: IKZF1 degradation in HEK293T cells co-transfected with wild-type or mutant CRBN. It counts as cell-based.

Data set [12] concerns the target T6, human GSPT1 (Homo sapiens, UniProt P15170).
T6 construct: expressed in transfected cells; host or cells: 293T HEK cells
Description: Compound-induced GSPT1 degradation by Western blot in 293T HEK cells. It counts as cell-based. To be noted: full-length and truncated (lacking N-terminal 138 residues) GSPT1. The text has this:
(§3) FIG. 28A illustrates a full-length human GSPT1 and a truncated mutant form, which lacks the N-terminal 138 amino acid residues. […] Thus, the truncated mutant human GSPT1 maintained the functionality of the full-length protein and can be used in studies below.
(§4) To determine the critical region in the human GSPT1 that contributes to the Compound C-induced degradation, a plethora of chimeric constructs containing various domains of human GSPT1 and yeast SUP35 were generated (FIG. 30A). These recombinant proteins were tested for Compound C-induced degradation by Western blot (FIGS. 30B-30D). As the results shown, a 32-amino acid fragment in the C-terminus of human GSPT1 (residues 562-593) is critical for Compound C-induced degradation.
(§5) To further map the essential amino acid residues in this 32-amino acid fragment of human GSPT1, various point mutations within the fragment were generated and tested for Compound C-induced degradation of GSPT1 and Compound C-induced interaction between CRBN and GSPT1. […] Among these homologues, only the yeast SUP35 is resistant to Compound C. […] Other mutations, […].

In data set [13] the target is T7, human GSPT1 (Homo sapiens, UniProt P15170, G437N).
T7 construct: expressed in transfected cells; host or cells: 293T HEK cells
The data set is described as above. It counts as cell-based. To be noted: GSPT1 G575N mutation.
Source text: as §3, §4, §5

Data set [14] deals with panel of tumor cell lines (B-lymphoma, breast, CNS, colon, kidney, leukemia, lung, melanoma, multiple myeloma, ovary, prostate). Description: Potency across a panel of tumor cell lines. It counts as cell-based. How it is done:
The potency of Compound C was assessed across a panel of tumor cell lines, including B-lymphoma, breast, CNS, colon, kidney, leukemia, lung, melanoma, multiple myeloma, ovary and prostate.

Data set [15] deals with CRBN-GSPT1. Briefly: Compound-induced interaction (in vitro binding) of CRBN with GSPT1. On the set-up: species or system human.
Source text: as §3, §5

The test system of data set [16] is H929 multiple myeloma cell line. Description: Apoptosis in multiple myeloma cell line H929. The data set is classed as cell-based. To be noted: 0.01 nM to 1000 nM; assessed 24 hrs later. On the procedure: The multiple myeloma cell line, H929, was cultured and treated with Compound C or other CMA analogs at various concentrations from 0.01 nM to 1000 nM. Apoptosis was assessed at 24 hrs. later.

Data set [17] has as its system human GSPT1 (G575N mutation). Description: Growth inhibition and activation of ATF4 and apoptosis pathways with GSPT1 G575N mutation. The data set is classed as cell-based.

On to `Cc1ccc(NC(=O)NCc2ccc3c(c2)CN(C2CCC(=O)NC2=O)C3=O)cc1Cl` (stereo not drawn) [Compound C, 1-(3-chloro-4-methylphenyl)-3-((2-(2,6-dioxopiperidin-3-yl)-1-oxoisoindolin-5-yl)methyl)urea], for which the GSPT1 degradation entry was “degradation of both IKZF1 and GSPT1” in data set [1]; “restores GSPT1 degradation” in data set [2]; “maintained” in [3]; “blocks the degradation of GSPT1” in data set [4]; “induced degradation of the full-length GSPT1 and the truncated form” in data set [12]; “blocked Compound C-induced degradation” in data set [13]. Further, the “binding to CRBN protein in MM cell extracts” value in data set [5] is listed as “binds CRBN protein”. Besides, the “anti-proliferative effects on co-treatment with lenalidomide” value in data set [6] was “blocks anti-proliferative effects”. Moreover, the “CRBN dependence of anti-proliferative activity” value in [7] (DF15 (sensitive) vs DF15R (CRBN null)) is listed as “CRBN is required for the anti-proliferative activity”. For the same compound, the “anti-proliferative activity after re-expression of human CRBN” value in [7] (DF15R-hCRBNWT) was “rescues Compound C anti-proliferative activity”. For the same compound, the SUP35 degradation result in [8] was “did not exhibit Compound C-induced degradation”. In data set [9], the “antiproliferative and pro-apoptotic effects” value is recorded as “resistant”. Moreover, the “CRBN dependence of growth inhibition and pro-apoptotic activity” value in data set [10] is “CRBN is required for both inhibition and pro-apoptotic activity”. The IKZF1 degradation entry in data set [11] (human CRBN V388I) was “blocks the degradation of IKZF1”; in data set [11] (human WT CRBN), “degradation of both IKZF1 and GSPT1”. Moreover, the “Therapeutic Index” value in data set [14] (across the cancer cell panel) is reported as “overall low Therapeutic Index”. Further, the “potency / activity in tumor cell lines” value in [14] (panel of tumor cell lines) is reported as “potent across a panel of tumor lines”. The “interaction between CRBN and GSPT1” value in data set [15] (GSPT1 G575N mutation) is “blocked Compound C-induced interaction between CRBN and GSPT1”. Further, the “interaction of CRBN with GSPT1” value in data set [15] (full-length and truncated GSPT1) is recorded as “induced interaction of CRBN with the full-length GSPT1 as well as the truncated GSPT1”. For the same compound, the early apoptosis entry in data set [16] is given as “induced early apoptosis”. Also, in [17], the “growth inhibition and downstream activation of ATF4 and apoptosis pathways” value was “blocked Compound C-induced growth inhibition and Compound C-induced downstream activation of ATF4 and apoptosis pathways”.
